Assay results taken from ChEMBL document CHEMBL4699569, “Rapid discovery of a selective butyrylcholinesterase inhibitor using structure-based virtual screening” (Bioorg Med Chem Lett, 2020).

Tests used:
[1] = molecular target: T1, Cholinesterase (Equus caballus, UniProt P81908); experiment: Inhibition of equine serum BuChE; type: cell-free
[2] = molecular target: Acetylcholinesterase (Electrophorus electricus, UniProt O42275); experiment: Inhibition of electric eel AChE at 100 uM
[3] = Permeability of compound by PAMPA-BBB assay; type: ADME; settings: read-out: permeability
[4] = molecular target: Acetylcholinesterase (Homo sapiens) (UniProt P22303); experiment: Inhibition of human recombinant AChE at 200 uM
Sequence of Acetylcholinesterase (Homo sapiens) (P22303 whole entry): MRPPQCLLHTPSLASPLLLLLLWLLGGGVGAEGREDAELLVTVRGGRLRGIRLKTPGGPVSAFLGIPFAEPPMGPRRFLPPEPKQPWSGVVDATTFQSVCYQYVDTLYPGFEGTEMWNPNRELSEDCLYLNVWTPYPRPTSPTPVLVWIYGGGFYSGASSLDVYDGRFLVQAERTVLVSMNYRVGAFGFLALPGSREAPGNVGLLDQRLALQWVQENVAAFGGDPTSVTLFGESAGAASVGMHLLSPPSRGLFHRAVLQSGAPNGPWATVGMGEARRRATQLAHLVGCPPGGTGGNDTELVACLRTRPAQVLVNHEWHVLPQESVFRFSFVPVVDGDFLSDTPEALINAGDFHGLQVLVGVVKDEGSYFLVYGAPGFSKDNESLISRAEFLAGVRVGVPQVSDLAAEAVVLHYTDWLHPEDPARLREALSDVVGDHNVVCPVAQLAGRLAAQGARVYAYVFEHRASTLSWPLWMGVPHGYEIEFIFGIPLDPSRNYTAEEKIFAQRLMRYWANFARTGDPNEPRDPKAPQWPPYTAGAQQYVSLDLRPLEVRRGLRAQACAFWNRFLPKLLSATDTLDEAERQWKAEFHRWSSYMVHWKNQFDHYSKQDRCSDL

[5] = molecular target: T1, Cholinesterase; experiment: Mixed inhibition of equine serum BChE using butyrylthiocholine iodide as substrate; type: cell-free
[6] = molecular target: Cholinesterase (Homo sapiens, UniProt P06276); experiment: Inhibition of human BuChE at 10 uM
Sequence of Cholinesterase (Homo sapiens, UniProt P06276) (P06276 whole entry): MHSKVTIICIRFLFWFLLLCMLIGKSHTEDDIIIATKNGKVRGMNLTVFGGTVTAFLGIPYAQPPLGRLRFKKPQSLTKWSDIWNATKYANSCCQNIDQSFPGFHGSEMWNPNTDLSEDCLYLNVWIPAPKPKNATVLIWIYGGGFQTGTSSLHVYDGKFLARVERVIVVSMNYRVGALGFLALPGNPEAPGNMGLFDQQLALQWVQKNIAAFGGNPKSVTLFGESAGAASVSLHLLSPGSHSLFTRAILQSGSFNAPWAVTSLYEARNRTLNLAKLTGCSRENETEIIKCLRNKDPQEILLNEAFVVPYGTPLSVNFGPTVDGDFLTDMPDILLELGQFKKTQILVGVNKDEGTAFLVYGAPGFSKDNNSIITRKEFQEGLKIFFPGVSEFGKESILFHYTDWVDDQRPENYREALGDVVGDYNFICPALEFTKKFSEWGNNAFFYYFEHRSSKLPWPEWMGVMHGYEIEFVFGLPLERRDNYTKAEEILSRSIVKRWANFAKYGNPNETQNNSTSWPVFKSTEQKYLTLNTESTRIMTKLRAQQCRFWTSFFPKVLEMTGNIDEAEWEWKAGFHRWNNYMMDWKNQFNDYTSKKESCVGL

T1 sequence (P81908 whole entry): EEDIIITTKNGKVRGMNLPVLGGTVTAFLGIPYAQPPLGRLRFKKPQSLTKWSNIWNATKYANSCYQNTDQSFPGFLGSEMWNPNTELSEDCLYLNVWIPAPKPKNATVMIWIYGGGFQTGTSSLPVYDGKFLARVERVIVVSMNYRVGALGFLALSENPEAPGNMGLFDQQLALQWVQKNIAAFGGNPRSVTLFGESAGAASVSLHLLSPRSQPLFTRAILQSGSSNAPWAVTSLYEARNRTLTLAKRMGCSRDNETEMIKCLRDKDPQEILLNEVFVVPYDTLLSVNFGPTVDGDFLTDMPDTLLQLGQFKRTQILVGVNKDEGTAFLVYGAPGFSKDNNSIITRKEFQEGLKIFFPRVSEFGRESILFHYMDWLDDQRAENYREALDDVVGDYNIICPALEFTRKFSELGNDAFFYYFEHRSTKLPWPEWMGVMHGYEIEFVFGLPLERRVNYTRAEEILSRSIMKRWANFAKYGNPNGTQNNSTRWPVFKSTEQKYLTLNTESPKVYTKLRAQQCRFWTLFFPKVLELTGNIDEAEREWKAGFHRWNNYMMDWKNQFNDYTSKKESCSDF
Sequence of Acetylcholinesterase (O42275 whole entry): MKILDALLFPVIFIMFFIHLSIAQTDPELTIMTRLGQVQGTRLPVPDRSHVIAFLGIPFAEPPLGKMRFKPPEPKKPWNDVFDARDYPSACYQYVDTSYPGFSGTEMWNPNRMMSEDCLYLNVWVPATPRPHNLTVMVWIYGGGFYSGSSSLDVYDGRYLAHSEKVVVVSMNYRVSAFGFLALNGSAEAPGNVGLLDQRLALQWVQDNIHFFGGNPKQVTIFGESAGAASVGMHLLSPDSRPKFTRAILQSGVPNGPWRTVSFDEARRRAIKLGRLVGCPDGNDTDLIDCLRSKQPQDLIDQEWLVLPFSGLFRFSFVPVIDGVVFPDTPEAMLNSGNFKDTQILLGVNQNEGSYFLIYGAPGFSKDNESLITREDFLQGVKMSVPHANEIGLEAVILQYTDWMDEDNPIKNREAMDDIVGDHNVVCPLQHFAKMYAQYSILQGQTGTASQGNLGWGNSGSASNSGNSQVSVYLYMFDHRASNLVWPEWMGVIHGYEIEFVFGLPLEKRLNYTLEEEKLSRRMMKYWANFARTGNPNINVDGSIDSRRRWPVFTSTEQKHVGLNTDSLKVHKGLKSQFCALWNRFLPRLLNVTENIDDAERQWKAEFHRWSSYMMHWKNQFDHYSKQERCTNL

Row | Structure (SMILES) | IC50 [1] | IC50 [2] | Papp [3] | inhibition [4] | Ki [5] | IC50 [6]
1 | COc1ccccc1C1CCN(Cc2c(C)[nH]c3ccccc23)CC1 | 12.3 µM | Not Active |  |  |  | 
2 | COc1ccc(-c2cc(C(=O)N3CCN(Cc4ccccc4)CC3)c3ccccc3n2)cc1 | 3.3 µM | Not Active | 1.28 ×10⁻⁶ cm/s | 8% | 5.2 µM | 2.4 µM
